The values below come from ChEMBL document CHEMBL1201862, “PubChem BioAssay data set” (2004).

As usually defined, the GI50 is the concentration at which growth is held to half of that of the control.

Each structure is given as a SMILES string.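 Cultured in 96-well plates, cells were exposed to test compound for 48 hours across five concentrations. Here, GI50 denotes the concentration required for 50% inhibition of growth.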 Activity calls are given as the source filed them. Rule as the data show it: active = GI50 up to about 1.1 µM and inactive = higher. Some results are limits rather than exact numbers.

Among the test systems are MDA-MB-231; MCF7; RXF 393; SR; HL-60; NCI-H460; HCC 2998; CCRF-CEM; SN12C; M14; PC-3; SK-OV-3; OVCAR-5; SK-MEL-2; DU-145; K562; U-251; UACC-62; SNB-19; SK-MEL-28.
Common to all, as to experiment: DTP human tumour cell line panel, 48 h

As for `NCCc1ccc2c(c1)C(=O)c1c(O)ccc(O)c1C2=O`, the GI50 is 4.51 µM (inactive) in the assay with MDA-MB-231; 3.51 µM (inactive) with MCF7; > 21.6 µM (inactive) in the assay on RXF 393; 3.43 µM (inactive) in the assay on SR; 2.17 µM (inactive) with HL-60; > 20.7 µM (inactive) in the assay on NCI-H460. In addition, the GI50 was > 23.9 µM (inactive) with HCC 2998; 3.36 µM (inactive) in the assay with CCRF-CEM; 2.51 µM (inactive) in the assay on SN12C; 3.08 µM (inactive) in the assay on M14; 3.33 µM (inactive) in the assay on PC-3; 5.86 µM (inactive) with SK-OV-3. In addition, the GI50 in the assay with OVCAR-5 is 5.06 µM (inactive); in the assay on SK-MEL-2 it was 6.55 µM (inactive); in the assay on DU-145 it was > 19.8 µM (inactive); with K562, 3.94 µM (inactive); in the assay on U-251, 3.64 µM (inactive); in the assay on UACC-62 it was 5.86 µM (inactive). Also, the GI50 with SNB-19 was 4.72 µM (inactive).
On to `CC(=N\N)/C(C)=N/N=C(C)/C(C)=N/N`, for which the GI50 in the assay on MDA-MB-231, with MCF7, in the assay with SK-MEL-28, in the assay on RXF 393, in the assay with SR and in the assay with HL-60 was > 100 µM (inactive) in each case. Further, the GI50 in the assay with NCI-H460, in the assay on HCC 2998, in the assay on CCRF-CEM, with SN12C, in the assay on M14 and in the assay on PC-3 was > 100 µM (inactive) in each case. For the same compound, the GI50 in the assay on SK-OV-3 is > 100 µM (inactive); with OVCAR-5, > 100 µM (inactive); in the assay on SK-MEL-2 it was > 100 µM (inactive); in the assay with DU-145, > 100 µM (inactive); in the assay with K562 it was > 10 µM (inactive); in the assay with U-251, > 100 µM (inactive). Also, the GI50 in the assay on SNB-19 was > 100 µM (inactive).
In the case of `CC1(c2nc3ccccc3[nH]2)CCC(C(N)=O)C(C)(C)O1` (stereo unspecified), the GI50 with MDA-MB-231, in the assay on MCF7, in the assay on SK-MEL-28, in the assay on RXF 393, with SR and in the assay with HL-60 was > 100 µM (inactive) in each case. For the same compound, the GI50 in the assay on HCC 2998 is > 100 µM (inactive); with CCRF-CEM, > 100 µM (inactive); in the assay with SN12C it was > 100 µM (inactive); in the assay on M14 it was > 100 µM (inactive); in the assay on PC-3 it was > 100 µM (inactive); in the assay on SK-OV-3 it was 55.2 µM (inactive). Also, the GI50 in the assay with OVCAR-5, with SK-MEL-2, in the assay on DU-145, in the assay on K562, in the assay on U-251 and with UACC-62 was > 100 µM (inactive) throughout. Moreover, the GI50 in the assay on SNB-19 is > 100 µM (inactive).
Turning to `CC(=O)NC1C(OCc2ccccc2)OC(CO)C(O)C1OC(C)C(=O)NC(C)C(=O)N[C@@H](CCC(=O)OCCCNC1c2ccccc2Nc2cccc([N+](=O)[O-])c21)C(N)=O` (stereo partly specified), the GI50 was 0.0282 µM (active) in the assay with MDA-MB-231; 0.0124 µM (active) in the assay with MCF7; < 0.01 µM (active) with SK-MEL-28; 0.0141 µM (active) in the assay with RXF 393; < 0.01 µM (active) with SR; < 0.0117 µM (active) in the assay with HL-60. In addition, the GI50 in the assay with NCI-H460 is < 0.01 µM (active); with HCC 2998 it was < 0.01 µM (active); in the assay on SN12C, < 0.01 µM (active); with M14, < 0.01 µM (active); in the assay on PC-3, 0.0266 µM (active); with SK-OV-3, 0.0194 µM (active). Besides, the 50% growth inhibitory concentration (GI50) in the assay on OVCAR-5 is 0.0223 µM (active); in the assay on SK-MEL-2, < 0.01 µM (active); in the assay with DU-145, 0.0314 µM (active); with K562 it was < 0.01 µM (active); in the assay with U-251, < 0.01 µM (active); with UACC-62 it was < 0.01 µM (active). The GI50 in the assay on SNB-19 was < 0.0124 µM (active).
